Species on record: Rattus norvegicus
Assay: DrugMatrix - Regimen: Daily Repeat
Format: toxicity, organism-based, Sprague-Dawley
Set-up: regimen Daily Repeat, gender Male, age 6-8 weeks
Conditions: in vivo, po, route oral GAVAGE, vehicle .5 % CMC; for ABSOLUTE BASOPHIL / ABSOLUTE EOSINOPHIL / ABSOLUTE LYMPHOCYTE / ABSOLUTE MONOCYTE / ABSOLUTE SEGMENTED NEUTROPHIL / BASOPHIL / EOSINOPHIL / ERYTHROCYTE COUNT / HEMATOCRIT / HEMOGLOBIN / LEUKOCYTE COUNT / LYMPHOCYTE / MEAN CORPUSCULAR HEMOGLOBIN / MEAN CORPUSCULAR HEMOGLOBIN CONCENTRATION / MEAN CORPUSCULAR VOLUME / MONOCYTE / NEUTROPHIL / NUCLEATED RED BLOOD CELLS / PLATELET COUNT: tissue Blood; for ALANINE AMINOTRANSFERASE / ALBUMIN / ALKALINE PHOSPHATASE / ASPARTATE AMINOTRANSFERASE / BLOOD UREA NITROGEN / CARBON DIOXIDE / CHOLESTEROL / CREATINE PHOSPHOKINASE / CREATININE / GLUCOSE / LACTATE DEHYDROGENASE / LIPASE / PHOSPHORUS / SODIUM / TOTAL BILIRUBIN / TOTAL PROTEIN / URIC ACID: tissue Plasma
[1] = 15 mg/kg, 72 h, dose level Low, time 3 day
[2] = 15 mg/kg, 120 h, dose level Low, time 5 day
[3] = 750 mg/kg, 72 h, dose level High, time 3 day
[4] = 750 mg/kg, 120 h, dose level High, time 5 day

For `CC(C)(C)c1ccc(C(O)CCCN2CCC(C(O)(c3ccccc3)c3ccccc3)CC2)cc1` (centres undefined) [TERFENADINE], the “ABSOLUTE BASOPHIL” value [1] was 0 CELLS/uL, the “ABSOLUTE EOSINOPHIL” value [1] was 0 CELLS/uL and the “ABSOLUTE LYMPHOCYTE” value [1] was 10879.67 CELLS/uL. The “ABSOLUTE MONOCYTE” value [1] was 121.67 CELLS/uL, the “ABSOLUTE SEGMENTED NEUTROPHIL” value [1] was 1165.33 CELLS/uL and the BASOPHIL [1] was 0%. For the same molecule, the EOSINOPHIL [1] was 0%, the “ERYTHROCYTE COUNT” value [1] was 5.45 x10E6/uL and the HEMATOCRIT [1] was 33.93%. For the same molecule, the HEMOGLOBIN [1] was 12.77 G/DL, the “LEUKOCYTE COUNT” value [1] was 12.17 x10E3/uL and the LYMPHOCYTE [1] was 89.33%. For the same molecule, the “MEAN CORPUSCULAR HEMOGLOBIN” value [1] was 23.43 pg, the “MEAN CORPUSCULAR HEMOGLOBIN CONCENTRATION” value [1] was 37.63 G/DL and the “MEAN CORPUSCULAR VOLUME” value [1] was 62.27 fL. The MONOCYTE [1] was 1%, the NEUTROPHIL [1] was 9.67% and the “NUCLEATED RED BLOOD CELLS” value [1] was 0 /100WBC. The “PLATELET COUNT” value [1] was 1158.33 x10E3/uL, the “ALANINE AMINOTRANSFERASE” value [1] was 52.67 u/L and the ALBUMIN [1] was 4.13 G/DL. For the same molecule, the “ALKALINE PHOSPHATASE” value [1] was 451 u/L, the “ASPARTATE AMINOTRANSFERASE” value [1] was 72 u/L and the “BLOOD UREA NITROGEN” value [1] was 16.67 mg/dL. The “CARBON DIOXIDE” value [1] was 22.67 mmol/L, the CHOLESTEROL [1] was 70 mg/dL and the “CREATINE PHOSPHOKINASE” value [1] was 139.33 u/L. For the same molecule, the CREATININE [1] was 0.18 mg/dL, the GLUCOSE [1] was 155.33 mg/dL and the “LACTATE DEHYDROGENASE” value [1] was 130.33 u/L. It also gave an LIPASE [1] of 10.67 u/L, a PHOSPHORUS [1] of 13.47 mg/dL and an SODIUM [1] of 145.6 MEQ/L. The “TOTAL BILIRUBIN” value [1] was 0.17 mg/dL, the “TOTAL PROTEIN” value [1] was 6.1 G/DL and the “URIC ACID” value [1] was 1.37 mg/dL. For the same molecule, the “ABSOLUTE BASOPHIL” value [2] was 0 CELLS/uL, the “ABSOLUTE EOSINOPHIL” value [2] was 0 CELLS/uL and the “ABSOLUTE LYMPHOCYTE” value [2] was 14283 CELLS/uL. The “ABSOLUTE MONOCYTE” value [2] was 352.67 CELLS/uL, the “ABSOLUTE SEGMENTED NEUTROPHIL” value [2] was 1897.67 CELLS/uL and the BASOPHIL [2] was 0%. The EOSINOPHIL [2] was 0%, the “ERYTHROCYTE COUNT” value [2] was 5.72 x10E6/uL and the HEMATOCRIT [2] was 34.8%. The HEMOGLOBIN [2] was 13.17 G/DL, the “LEUKOCYTE COUNT” value [2] was 16.53 x10E3/uL and the LYMPHOCYTE [2] was 86.67%. The “MEAN CORPUSCULAR HEMOGLOBIN” value [2] was 23.03 pg, the “MEAN CORPUSCULAR HEMOGLOBIN CONCENTRATION” value [2] was 37.83 G/DL and the “MEAN CORPUSCULAR VOLUME” value [2] was 60.87 fL. For the same molecule, the MONOCYTE [2] was 2%, the NEUTROPHIL [2] was 11.33% and the “NUCLEATED RED BLOOD CELLS” value [2] was 0 /100WBC. For the same molecule, the “PLATELET COUNT” value [2] was 993 x10E3/uL, the “ALANINE AMINOTRANSFERASE” value [2] was 51.33 u/L and the ALBUMIN [2] was 4.13 G/DL. For the same molecule, the “ALKALINE PHOSPHATASE” value [2] was 285 u/L, the “ASPARTATE AMINOTRANSFERASE” value [2] was 91.33 u/L and the “BLOOD UREA NITROGEN” value [2] was 16 mg/dL. The “CARBON DIOXIDE” value [2] was 26.67 mmol/L, the CHOLESTEROL [2] was 66.67 mg/dL and the “CREATINE PHOSPHOKINASE” value [2] was 518.33 u/L. The CREATININE [2] was 0.2 mg/dL, the GLUCOSE [2] was 156 mg/dL and the “LACTATE DEHYDROGENASE” value [2] was 390.67 u/L. For the same molecule, the LIPASE [2] was 10.67 u/L, the PHOSPHORUS [2] was 13.3 mg/dL and the SODIUM [2] was 144.33 MEQ/L. The “TOTAL BILIRUBIN” value [2] was 0.1 mg/dL, the “TOTAL PROTEIN” value [2] was 6 G/DL and the “URIC ACID” value [2] was 1.43 mg/dL. The “ABSOLUTE BASOPHIL” value [3] was 0 CELLS/uL, the “ABSOLUTE EOSINOPHIL” value [3] was 0 CELLS/uL and the “ABSOLUTE LYMPHOCYTE” value [3] was 14273 CELLS/uL. The “ABSOLUTE MONOCYTE” value [3] was 481.67 CELLS/uL, the “ABSOLUTE SEGMENTED NEUTROPHIL” value [3] was 1312 CELLS/uL and the BASOPHIL [3] was 0%. The EOSINOPHIL [3] was 0%, the “ERYTHROCYTE COUNT” value [3] was 6.18 x10E6/uL and the HEMATOCRIT [3] was 38.5%. For the same molecule, the HEMOGLOBIN [3] was 14.53 G/DL, the “LEUKOCYTE COUNT” value [3] was 16.07 x10E3/uL and the LYMPHOCYTE [3] was 88.67%. The “MEAN CORPUSCULAR HEMOGLOBIN” value [3] was 23.5 pg, the “MEAN CORPUSCULAR HEMOGLOBIN CONCENTRATION” value [3] was 37.77 G/DL and the “MEAN CORPUSCULAR VOLUME” value [3] was 62.27 fL. The MONOCYTE [3] was 3%, the NEUTROPHIL [3] was 8.33% and the “NUCLEATED RED BLOOD CELLS” value [3] was 0 /100WBC. For the same molecule, the “PLATELET COUNT” value [3] was 1171.33 x10E3/uL, the “ALANINE AMINOTRANSFERASE” value [3] was 99 u/L and the ALBUMIN [3] was 4.33 G/DL. For the same molecule, the “ALKALINE PHOSPHATASE” value [3] was 343.33 u/L, the “ASPARTATE AMINOTRANSFERASE” value [3] was 108 u/L and the “BLOOD UREA NITROGEN” value [3] was 13.33 mg/dL. The “CARBON DIOXIDE” value [3] was 21.33 mmol/L, the CHOLESTEROL [3] was 50 mg/dL and the “CREATINE PHOSPHOKINASE” value [3] was 417.33 u/L. For the same molecule, the CREATININE [3] was 0.18 mg/dL, the GLUCOSE [3] was 144.33 mg/dL and the “LACTATE DEHYDROGENASE” value [3] was 236.33 u/L. For the same molecule, the LIPASE [3] was 8.67 u/L, the PHOSPHORUS [3] was 12.17 mg/dL and the SODIUM [3] was 145.77 MEQ/L. For the same molecule, the “TOTAL BILIRUBIN” value [3] was 0.23 mg/dL, the “TOTAL PROTEIN” value [3] was 5.97 G/DL and the “URIC ACID” value [3] was 1.57 mg/dL. For the same molecule, the “ABSOLUTE BASOPHIL” value [4] was 0 CELLS/uL, the “ABSOLUTE EOSINOPHIL” value [4] was 72 CELLS/uL and the “ABSOLUTE LYMPHOCYTE” value [4] was 15584.33 CELLS/uL. The “ABSOLUTE MONOCYTE” value [4] was 134.67 CELLS/uL, the “ABSOLUTE SEGMENTED NEUTROPHIL” value [4] was 2309 CELLS/uL and the BASOPHIL [4] was 0%. For the same molecule, the EOSINOPHIL [4] was 0.33%, the “ERYTHROCYTE COUNT” value [4] was 6.8 x10E6/uL and the HEMATOCRIT [4] was 40.3%. For the same molecule, the HEMOGLOBIN [4] was 15.4 G/DL, the “LEUKOCYTE COUNT” value [4] was 18.1 x10E3/uL and the LYMPHOCYTE [4] was 86.33%. For the same molecule, the “MEAN CORPUSCULAR HEMOGLOBIN” value [4] was 22.7 pg, the “MEAN CORPUSCULAR HEMOGLOBIN CONCENTRATION” value [4] was 38.23 G/DL and the “MEAN CORPUSCULAR VOLUME” value [4] was 59.33 fL. For the same molecule, the MONOCYTE [4] was 0.67%, the NEUTROPHIL [4] was 12.67% and the “NUCLEATED RED BLOOD CELLS” value [4] was 0 /100WBC. The “PLATELET COUNT” value [4] was 1002.67 x10E3/uL, the “ALANINE AMINOTRANSFERASE” value [4] was 124.67 u/L and the ALBUMIN [4] was 4.3 G/DL. For the same molecule, the “ALKALINE PHOSPHATASE” value [4] was 360.33 u/L, the “ASPARTATE AMINOTRANSFERASE” value [4] was 104.67 u/L and the “BLOOD UREA NITROGEN” value [4] was 16.67 mg/dL. For the same molecule, the “CARBON DIOXIDE” value [4] was 27.67 mmol/L, the CHOLESTEROL [4] was 55.67 mg/dL and the “CREATINE PHOSPHOKINASE” value [4] was 566 u/L. The CREATININE [4] was 0.26 mg/dL, the GLUCOSE [4] was 128 mg/dL and the “LACTATE DEHYDROGENASE” value [4] was 180.33 u/L. It also gave an LIPASE [4] of 9.67 u/L, a PHOSPHORUS [4] of 12.07 mg/dL and an SODIUM [4] of 145.6 MEQ/L. For the same molecule, the “TOTAL BILIRUBIN” value [4] was 0.13 mg/dL, the “TOTAL PROTEIN” value [4] was 6.27 G/DL and the “URIC ACID” value [4] was 1.9 mg/dL.

— ChEMBL document CHEMBL3885881, “DrugMatrix”
